These results are taken from PMC8830681, “Circadian control of heparan sulfate levels times phagocytosis of amyloid beta aggregates” (PLoS Genetics, 2022).

For data set [1] the following is noted: as a free peptide and when bound to HSPGs; cited from earlier work. An excerpt: In addition to binding Aβ42, HSPGs regulate the formation of Aβ42 plaques, with highly-sulfated HSPGs accumulating in the plaques. Aβ peptides exist in two forms (Aβ40 or Aβ42) based on the cleavage of the amyloid precursor protein (APP) by β- and γ-secretase. Previous studies show differential phagocytosis of Aβ42 and Aβ40, yet the key amino acids essential to binding are present in Aβ40 (Fig 6C) (13–16, HHQK). However, the anionic bridge between lysine 28 and […], which is broken by HSPGs to allow the formation of Aβ42 aggregates by rapidl ...

Data set [2] deals with bone-marrow derived macrophages (BMDMs) from Per2::Luc C57BL/6J mice. The data set can be described thus: Phagocytosis assay of HiLyte 488 labeled amyloid-beta by serum-shock synchronized macrophages (with or without heparinases). The format is cell-based, mouse. Particulars: ECHO v4.1 fit, average of 3 replicates, log10 mean cell fluorescence, 2 h uptake every 4 h PS16-PS40, WT Per2::Luc BMDMs. An excerpt:
To do so, we modified a previously-employed BMDM phagocytosis assay (as BMDMs are both models for activated microglia and are known to migrate into the brain in late-stage AD), to use fluorescently labeled Aβ42 to determine if the phagocytosis of Aβ42 is controlled by the circadian clock. In brief, BMDMs were derived from bone marrow progenitor cells extracted from Per2::Luc C57BL/6J mice and differentiated with recombinant Macrophage Colony Stimulating Factor (M-CSF), with flow cytometry confirming complete differentiation into naïve peripheral macrophages. […] 16 h after synchronization, confluent dishes of these BMDMs were treated HiLyte 488 labeled Aβ42 (Anaspec), in triplicate, every 4 h over a 24 h circadian period. BMDMs treated with labeled Aβ42 were harvested two hours after Aβ42 treatment and fixed with formalin. Total cellular fluorescence levels were analyzed with fluorescent confocal microscopy and quantified using a custom cell measurement MATLAB script (Fig 1A, S2 Fig, and S1 Table).
Bone marrow was harvested from the femurs and tibias of one 3–6-month-old male mouse using a 26 g needle and syringe filled with DMEM supplemented media. ACK lysing buffer (Lonza 10-548E) was used to lyse red blood cells in order to prevent erythrocyte contamination. Filtered bone marrow cells were counted using a BioRad TC20 automated cell counter and plated on 35 mm cell culture plates at a density of 1 x 10^6 in macrophage differentiation media. After three days of incubation at 37°C with 5% CO2, fresh macrophage differentiation media was added. After another 3 days of incubation, the cells were washed with 2 ml warm PBS per plate, and replaced with macrophage assay media, and the cultures were incubated for 24 h. Macrophage cultures were then washed with 2 ml warm PBS, macrophage serum starvation media was added, and the plates were incubated in the starve media for 24 h. Next, macrophage serum starvation media was removed, and macrophage serum shock media was added, and cultures were incubated for 2 h. Macrophage cultures were then washed with 2 ml warmed PBS each and macrophage media Luciferin was added. Cultures were sealed with grease and glass cover slips and placed in a LumiCycle 32 luminometer (Actimetrics) to confirm synchronization of circadian rhythmicity. Assays began 16 h post serum shock to allow the synchronized cells to return to homeostasis.
All amyloid-beta isoforms were reconstituted 24 h or less before experimentation in water and PBS (1:1) and were dissolved using sonication for approximately 30 min. The reconstituted Aβ was pooled from individual vials before aliquoting for each experimental replicate. The aliquots were then flash frozen and stored at -80°C until 20 min before use.
Using synchronized macrophages (as described above) starting at PS16 macrophages were treated every 4 h for 24 h, in triplicate, with 115 μl (0.25 mg/ml) of fluorescently labeled amyloid-beta (PS16, PS20, PS24, PS28, PS32, PS36, and PS40) and heparinases at the reported activity levels (S5 Table). The treated macrophages were then incubated at 37°C for 2 h. Following the two-hour incubation, the media was aspirated, and the macrophages were washed with 2ml of PBS three times before Cell Stripper (Corning 25-056-CI) was added to the cultures, which were then incubated at 37°C for 3 min. Detached macrophages were next centrifuged at 400 g for 5 min, the supernatant was aspirated, and the macrophage cell pellets were resuspended in formalin and incubated in the dark at room temperature for 30 min. Macrophages were then centrifuged for 5 min at 400 g, the supernatant was aspirated, and the macrophages were resuspended in 250 μL of PBS and kept at 4°C. The fixed macrophages were imaged using fluorescent microscopy within a week of the experiment. All fluorescent images from the phagocytosis experiments are available on Mendeley Data (doi: 10.17632/zrmgjyggmr.1). […]

The test system of data set [3] is BMDMs from PER1^-/-/PER2^-/- knockout (KO) mice. The data set can be described thus: Phagocytosis assay of HiLyte 488 labeled Aβ42 in clock knockout macrophages. In kind it is cell-based, mouse. As for the experimental part:
(Fig 1B and 1C, S1 Fig). The extended harmonic circadian oscillator model (ECHO version 4.1) was used to analyze the average of the three replicates from each timepoint and predicted that Aβ42 total cellular florescence, and therefore the phagocytosis of Aβ42, oscillated with a circadian period (~26 h, ECHO p-value = 1.61 x 10^−6). Additionally, when compared with PER2 levels extrapolated based on the lumicycle data of the macrophages sampled, we saw that total cellular fluorescence was highest after the zenith of PER2 levels (Fig 1B and 1C). The Aβ42 phagocytosis experiment was then repeated using PER1^-/-/PER2^-/- knockout (KO) mice to confirm the circadian influence of this relationship. BMDMs from the knockout mice were extracted, derived into naïve macrophages, and synchronized as described above. KO macrophages were treated with fluorescently labeled Aβ42 for 2 h, in triplicate, every 4 h for 24 h starting at PS16.
PER2::LUC C57BL/6J male mice 3–6 months of age bred from Jackson Labs stock strains (Accession # 006852) were used for all WT experiments and were euthanized using CO2 gas and cervical dislocation. […]
Average cellular pixel intensities were used as a proxy for of Aβ phagocytosis. At least 100 cells measured per time point were analyzed using the above-described software. […]

In the case of “Amyloid-beta 42 labeled with HiLyte 488 [Aβ42]”, the “aggregation kinetics compared with Aβ40 (in words)” value in data set [1] is given as “higher aggregation kinetics”. Also, the “Oscillation Type” value in data set [2] was “Forced”; in data set [3] (ECHO v4.1 fit, average of 3 replicates, log10 mean cell fluorescence, 2 h uptake every 4 h from PS16, PER1-/-/PER2-/- KO BMDMs), “Damped”. Also, the “oscillation of Aβ42 phagocytosis in knockout macrophages (in words)” value in data set [3] (2 h treatment, in triplicate, every 4 h for 24 h starting at PS16, total cellular fluorescence) is given as “ablation of the zenith of fluorescence at PS32”.
